The subject of one data set is murine ear edema model. The note with it: cited from earlier work.
For a further data set, the system named is Caco-2 cell monolayer. Kind of data set: Transport experiment across Caco-2 cell monolayer (Papp). It counts as in vitro ADME, human. The note with it: for Absorption mechanism: from P ratio, time course and concentration course; for P ratio Papp AP→BL/Papp BL→AP: 90 min. Here is the method:
(§1) For cells differentiation to form a confluent monolayer, Caco-2 cells were seeded into the inserts of the 12-well Transwell plates at the density of 1.0×10^5 cells/cm^2. The culture medium was replaced on every other day in the first week, and then at daily intervals for the apical (AP) side and 2 days intervals for the basal (BL) side until the transport experiment was performed 21 days after seeding. The AP and BL sides contained 0.5 and 1.5 mL of culture medium, respectively. […] The cell inserts were considered as qualified only if the resistance reached above 600 Ω cm^2.
(§2) On day 21, the transport experiment was initiated by removal of the culture medium from AP and BL sides. The Caco-2 monolayers were rinsed twice with pre-warmed Hanks balanced salt solution (HBSS) and were incubated with the same solution at 37°C for 30 min. The seven individual test compounds and an equimolar mixture of them were pre-dissolved in DMSO, and then diluted to 25, 50, and 100 μmol/L with an appropriate volume of HBSS to allow the final concentration of DMSO to be less than 1%. The test compounds were added to the AP (0.5 mL) or BL side (1.5 mL), while the receiving chamber contained the corresponding volume of HBSS. Incubation was performed at 37°C for 180 min, with shaking at 50 rpm. At 30, 60, 90, 120, 150, and 180 min, each 0.2 mL of the solution from BL or AP side was collected, and replaced with an equal volume of HBSS. The samples were frozen immediately and stored below-20°C before analysis.
(§3) The apparent permeability coefficients (Papp) were determined in this study by HPLC quantification of the compounds in the receiver chamber after transport across the Caco-2 monolayer. The calculation was carried out in accordance with the formula Papp = (dQ/dt)×(1/A)×(1/C0), wherein dQ/dt was the rate of appearance of the test compound in the receiver compartment (μmol/s); C0 was the initial concentration of test compound in the donor compartment (μmol/mL); and A was the surface area of the Caco-2 monolayer (cm^2). The percentage transported (%) was calculated using the formula % transported = QB/(CS×VD)×100, wherein QB was the quantity of compound in the receiver compartment (μmol); CS was the concentration of test compound in the donor compartment (μmol/mL); VD was the liquid volume of the donor compartment (mL). The transport rate (μmol/h/cm^2) was calculated using the formula transport rate = QB/(t×A), wherein QB was the quantity of compound in the receiver compartment (μmol); t was the incubation time (h); A was the surface area of the Caco-2 monolayer (cm^2).
(Caco-2 monolayers are a common model of the intestinal barrier.)

Test in data set [1]: as above
The data set is classed as in vitro ADME, human. The note with it: human, 50 μmol/L, 90 min. Here is the method: as §1, §2, §3

In another data set the test system is influenza virus A. Set-up: method as in PMID 17193271. The note with it: cited from earlier work.
The nature of data set [2]: Stability of sample solutions at room temperature by HPLC. The note with it: sample solution at room temperature, HPLC at 0, 1, 2, 4, 6, 12 and 24 h. It counts as physicochemical. How it is done:
The intra-day precision was determined by investigating the analytes in sextuplicates during a single day, and the inter-day precision was determined by conducting the intra-day experiment on two consecutive days. […] Each one sample solution of the seven flavonoids was kept at room temperature, and then their stabilities were determined by injecting them into apparatus at 0, 1, 2, 4, 6, 12, and 24 h.

The subject of the next data set is Caco-2 cells. Kind of data set: MTT assay, survival rate of Caco-2 cells. It counts as cell-based, human. The note with it: 4 h. From the text: The human colon adenocarcinoma cell line Caco-2 (No. 3111C0001CCC000100, passage 32) was obtained from the Cell Resource Center, Peking Union Medical College (the headquarters of National Infrastructure of Cell Line Resource, NSTI) on May 3rd, 2013. The cell line was checked free of mycoplasma contamination by PCR and culture, its species origin was confirmed with PCR, and its identity was authenticated with STR profiling (FBI, CODIS). All results of the above tests can be viewed on the website (http://cellresource.cn). The cells were cultured in 25 cm^2 flasks in DMEM medium supplemented with 10% (v/v) FBS, 1% (v/v) NEAA, and 1% (v/v) penicillin-streptomycin, in an atmosphere of 5% CO2 at 37°C and constant moisture. The culture medium was replaced every 2 to 3 days, and the cells were split 1:2 or 1:3 as 80% confluence was obtained.
Caco-2 cells at logarithmic growth phase were seeded into 96-well plates and incubated at 37°C in an atmosphere of 5% CO2 and constant moisture in the incubator. After the cells reached confluence, they were cultured in quadruplicate with 100 μL of HBSS solution (negative control) and compound-containing HBSS solution (seven flavonoids or paclitaxel (positive control) at the concentrations of 25, 50, and 100 μmol/L, respectively) for 4 h. Then, HBSS solution was replaced by 100 μL of MTT solution (0.5 mg/mL), and the supernatant was discarded after 4 h of incubation at 37°C. The cells were shaken with 150 μL of DMSO for 10 min, and the absorbance was read on the microplate reader at 570 nm. The survival rate %=A¯/A0¯×100 , wherein A¯ was the average absorbance value of treatment or positive control group, and A0¯ was the average absorbance value of negative control group.
On the technique in general: Tetrazolium dyes change colour on reduction, which living cells bring about.

Data set [3] addresses T1, multidrug resistance protein 2 (MRP2) (Homo sapiens, UniProt Q92887).
T1 construct: endogenous in cells; host or cells: Caco-2 cells
Kind of data set: Transporter inhibition experiment with probenecid (MRP2) in Caco-2 monolayer. The data set is classed as in vitro ADME. The note with it: 50 μmol/L compound, 600 μmol/L probenecid, AP to BL. How it is done: (§4) On day 21, transport study was initiated by carefully removing the culture medium from both AP and BL sides. The Caco-2 monolayers were rinsed twice with pre-warmed HBSS and were incubated with the same solution at 37°C for 30 min. […] The final concentration of DMSO in these solutions was less than 1%. […] Incubation was performed at 37°C for 180 min, with shaking at 50 rpm. […] The samples were frozen immediately and stored below-20°C before analysis.

The next data set deals with T2, P-glycoprotein (P-gp) (Homo sapiens, UniProt P08183).
T2 construct: endogenous in cells; host or cells: Caco-2 cells
T2 sequence (P08183 whole entry): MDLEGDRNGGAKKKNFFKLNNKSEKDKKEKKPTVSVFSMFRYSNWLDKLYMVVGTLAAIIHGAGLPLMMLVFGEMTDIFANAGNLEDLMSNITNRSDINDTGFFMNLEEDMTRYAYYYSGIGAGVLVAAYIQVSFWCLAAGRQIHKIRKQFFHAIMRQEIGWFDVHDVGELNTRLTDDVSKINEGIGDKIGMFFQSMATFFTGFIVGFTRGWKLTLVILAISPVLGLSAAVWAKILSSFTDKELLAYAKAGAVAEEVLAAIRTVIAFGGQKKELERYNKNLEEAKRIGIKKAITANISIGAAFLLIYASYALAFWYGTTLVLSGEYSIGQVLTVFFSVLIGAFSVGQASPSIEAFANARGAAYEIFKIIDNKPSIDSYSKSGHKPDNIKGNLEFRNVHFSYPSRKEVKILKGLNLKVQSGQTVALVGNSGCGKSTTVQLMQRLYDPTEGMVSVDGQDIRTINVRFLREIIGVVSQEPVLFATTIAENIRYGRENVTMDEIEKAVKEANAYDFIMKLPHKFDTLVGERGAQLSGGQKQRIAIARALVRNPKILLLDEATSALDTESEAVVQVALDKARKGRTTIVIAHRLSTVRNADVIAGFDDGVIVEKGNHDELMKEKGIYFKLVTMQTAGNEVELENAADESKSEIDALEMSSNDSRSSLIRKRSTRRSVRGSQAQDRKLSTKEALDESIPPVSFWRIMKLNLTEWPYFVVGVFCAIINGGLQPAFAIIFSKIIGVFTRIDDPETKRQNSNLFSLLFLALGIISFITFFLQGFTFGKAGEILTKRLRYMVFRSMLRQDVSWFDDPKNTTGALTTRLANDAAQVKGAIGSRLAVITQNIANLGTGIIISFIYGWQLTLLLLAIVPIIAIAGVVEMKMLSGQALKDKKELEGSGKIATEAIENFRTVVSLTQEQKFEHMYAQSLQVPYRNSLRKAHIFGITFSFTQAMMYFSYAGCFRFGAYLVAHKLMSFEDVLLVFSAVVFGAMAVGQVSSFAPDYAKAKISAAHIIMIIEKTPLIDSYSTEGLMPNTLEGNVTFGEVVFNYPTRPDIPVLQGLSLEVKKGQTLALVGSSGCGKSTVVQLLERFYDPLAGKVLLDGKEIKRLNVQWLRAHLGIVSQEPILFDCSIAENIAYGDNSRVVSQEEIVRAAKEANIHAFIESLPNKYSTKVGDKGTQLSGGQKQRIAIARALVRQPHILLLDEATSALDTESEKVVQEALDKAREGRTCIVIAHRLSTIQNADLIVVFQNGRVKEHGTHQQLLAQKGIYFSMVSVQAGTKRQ
Kind of data set: Transporter inhibition experiment with verapamil hydrochloride (P-gp) in Caco-2 monolayer. The data set is classed as in vitro ADME. The note with it: 50 μmol/L compound, 100 μmol/L verapamil hydrochloride, AP to BL; for Effect of verapamil hydrochloride on the transport: 180 min. How it is done: as §4

Another data set concerns Staphylococcus aureus. Details: method as in earlier work. The note with it: cited from earlier work.
In the next data set the test system is S. epidermidis. Set-up: method as in earlier work. The note with it: cited from earlier work.
Data set [4] has as its system parainfluenza virus type 3 (Para 3). Set-up: method as in PMID 11849843. The note with it: cited from earlier work.
Where [5] appears, read: in the equimolar mixture of the seven flavonoids, 50 μmol/L.
Setting [6] is: Caco-2, in the equimolar mixture of the seven flavonoids.

Each structure is given as a SMILES string. Values after ≈ are worked out from the molar mass of the structure shown. Values joined by “and” are separate entries in the source; they are usually repeats but may differ in a detail not shown here. Equal entries are not always repeated.

T1 sequence (Q92887 whole entry): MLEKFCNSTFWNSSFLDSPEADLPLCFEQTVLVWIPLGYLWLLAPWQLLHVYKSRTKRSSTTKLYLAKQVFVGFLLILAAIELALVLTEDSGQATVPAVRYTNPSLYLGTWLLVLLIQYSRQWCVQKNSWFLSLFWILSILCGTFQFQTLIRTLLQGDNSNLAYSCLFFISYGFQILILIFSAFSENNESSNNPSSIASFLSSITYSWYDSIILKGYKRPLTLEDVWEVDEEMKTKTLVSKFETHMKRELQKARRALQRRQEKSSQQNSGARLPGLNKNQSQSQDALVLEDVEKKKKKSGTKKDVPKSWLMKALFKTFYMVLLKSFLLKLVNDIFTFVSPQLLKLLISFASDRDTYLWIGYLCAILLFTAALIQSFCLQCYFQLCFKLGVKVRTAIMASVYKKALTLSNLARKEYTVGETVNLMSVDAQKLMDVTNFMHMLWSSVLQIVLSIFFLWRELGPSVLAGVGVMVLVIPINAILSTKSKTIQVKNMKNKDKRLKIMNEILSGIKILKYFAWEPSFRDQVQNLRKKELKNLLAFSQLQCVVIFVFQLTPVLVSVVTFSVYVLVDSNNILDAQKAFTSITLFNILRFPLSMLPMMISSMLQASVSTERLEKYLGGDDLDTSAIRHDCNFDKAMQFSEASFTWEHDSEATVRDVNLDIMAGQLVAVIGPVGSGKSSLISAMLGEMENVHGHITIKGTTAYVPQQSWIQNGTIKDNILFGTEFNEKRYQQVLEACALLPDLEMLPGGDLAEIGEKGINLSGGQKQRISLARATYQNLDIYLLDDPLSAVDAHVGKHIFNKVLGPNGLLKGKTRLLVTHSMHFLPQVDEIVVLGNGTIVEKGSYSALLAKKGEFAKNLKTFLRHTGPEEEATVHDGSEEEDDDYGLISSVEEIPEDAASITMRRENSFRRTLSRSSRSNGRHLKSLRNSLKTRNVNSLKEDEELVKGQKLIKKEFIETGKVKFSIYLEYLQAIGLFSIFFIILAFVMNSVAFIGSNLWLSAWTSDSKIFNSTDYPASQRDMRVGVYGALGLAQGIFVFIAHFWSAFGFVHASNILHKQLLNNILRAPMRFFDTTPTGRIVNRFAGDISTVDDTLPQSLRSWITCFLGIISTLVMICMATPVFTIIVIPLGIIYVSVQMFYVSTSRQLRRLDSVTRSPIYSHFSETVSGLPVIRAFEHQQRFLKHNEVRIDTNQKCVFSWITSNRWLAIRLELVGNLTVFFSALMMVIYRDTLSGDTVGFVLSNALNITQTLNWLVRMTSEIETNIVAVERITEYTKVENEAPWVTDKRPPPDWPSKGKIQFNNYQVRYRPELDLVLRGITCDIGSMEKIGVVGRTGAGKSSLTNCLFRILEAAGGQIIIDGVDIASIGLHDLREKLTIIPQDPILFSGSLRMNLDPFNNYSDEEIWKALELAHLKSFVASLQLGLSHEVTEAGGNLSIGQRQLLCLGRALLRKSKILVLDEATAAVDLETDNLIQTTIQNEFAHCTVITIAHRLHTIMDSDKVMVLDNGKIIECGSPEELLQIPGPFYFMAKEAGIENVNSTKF

For the molecule `CCC(C)C(=O)O[C@@H]1[C@@H](O)[C@H](O)[C@@H](CO)O[C@H]1c1c(OC)cc(O)c2c(=O)cc(-c3ccc(O)cc3)oc12` (stereo partly drawn) [2”-O-(2”‘-methylbutanoyl)isoswertisin, (2S,3R,4S,5S,6R)-4,5-dihydroxy-2-(5-hydroxy-2-(4-hydroxyphenyl)-7-methoxy-4-oxo-4H-chromen-8-yl)-6-(hydroxymethyl)tetrahydro-2H-pyran-3-yl 2-methylbutanoate], the “Inhibitory rate on murine ear edema model” value in the data set on murine ear edema model was 35.5%. The “Transport percentage BL to AP in the equimolar mixture compared with individual state” value in the data set with Caco-2 cell monolayer (50 μmol/L) is reported as “increased almost twice”. The “Absorbability assessment based on bidirectional Papp values” in the data set on Caco-2 cell monolayer (compared with atenolol and propranolol) is reported as “moderate absorbable compound”. Besides, in the data set with Caco-2 cell monolayer, the Absorption mechanism result is “passive diffusion without participation of transporter”. Also, the “P ratio Papp AP→BL/Papp BL→AP” value with Caco-2 cell monolayer (setting [5]) is 0.25; in the data set with Caco-2 cell monolayer (individual compound, 50 μmol/L), ~1 and 0.94. Also, the apical-to-basolateral permeability (Papp A→B) (as a rule, how fast a substance crosses the layer from the apical side) at 90 min, 50 μmol/L in data set [1] (setting [6]) came to 3.49 ± 0.47 ×10⁻⁶ cm/s; in data set [1] (Caco-2, individual compound), 4.5 ± 0.03 ×10⁻⁶ cm/s. In addition, the Papp B→A – broadly, how fast a substance crosses the layer from the basolateral side – at 90 min, 50 μmol/L in data set [1] (setting [6]) came out at 13.7 ± 1.14 ×10⁻⁶ cm/s; in data set [1] (Caco-2, individual compound), 4.8 ± 0.53 ×10⁻⁶ cm/s. Further, in the data set on influenza virus A, the “Effect against influenza virus A” value was “had an effect”. In data set [2], the “RSD% values for 24-hour stability” value stood at 3.89%. The figures for the “Survival rates (%)” value in the data set on Caco-2 cells (25 μmol/L), in the data set on Caco-2 cells (50 μmol/L) and in the data set on Caco-2 cells (100 μmol/L) were 108.8±10.3%, 127.6±4.9% and 128.9±12.5%, respectively.
Turning to `O=c1cc(-c2ccc(O)c(O)c2)oc2c([C@@H]3O[C@H](CO)[C@@H](O)[C@H](O)[C@H]3O[C@@H]3O[C@H](CO)[C@H](O)[C@H](O)[C@H]3O)c(O)cc(O)c12` [2”-O-β-L-galactopyranosylorientin, 8-((2S,3R,4S,5S,6R)-4,5-dihydroxy-6-(hydroxymethyl)-3-(((2S,3R,4S,5R,6R)-3,4,5-trihydroxy-6-(hydroxymethyl)tetrahydro-2H-pyran-2-yl)oxy)tetrahydro-2H-pyran-2-yl)-2-(3,4-dihydroxyphenyl)-5,7-dihydroxy-4H-chromen-4-one], in [3], the “Substrate of MRP2” value is reported as “substrate of MRP2”. Further, the “Effect of probenecid on the transport” value in data set [3] (180 min) is reported as “significantly promoted”. Also, the Absorption mechanism entry with Caco-2 cell monolayer is listed as “transporter mediated efflux in addition to passive diffusion”. Moreover, the “P ratio Papp AP→BL/Papp BL→AP” value in the data set with Caco-2 cell monolayer (setting [5]) is on record as 1.90; in the data set with Caco-2 cell monolayer (individual compound, 50 μmol/L), 0.40. Also, the Papp A→B at 90 min, 50 μmol/L in data set [1] (setting [6]) was found to be 1.31 ± 0.38 ×10⁻⁶ cm/s; in [1] (Caco-2, individual compound) it was 1.84 ± 0.01 ×10⁻⁶ cm/s. The Papp B→A at 90 min, 50 μmol/L in data set [1] (setting [6]) is 0.69 ± 0.26 ×10⁻⁶ cm/s; in [1] (Caco-2, individual compound), 4.58 ± 0.18 ×10⁻⁶ cm/s. In addition, the “Substrate of P-gp” value at P-glycoprotein (P-gp) is reported as “nonsubstrates of P-gp”. In addition, on P-glycoprotein (P-gp), the “Effect of verapamil hydrochloride on the transport” value is on record as “had no effect”. Besides, in data set [2], the “RSD% values for 24-hour stability” value was 2.86%. In addition, the “Survival rates (%)” value in the data set with Caco-2 cells (25 μmol/L) was 111.0±9.1%; in the data set on Caco-2 cells (50 μmol/L) it was 104.7±2.7%; in the data set on Caco-2 cells (100 μmol/L) it was 102.7±7.7%.
Regarding `O=c1cc(-c2ccc(O)cc2)oc2c([C@@H]3O[C@H](CO)[C@@H](O)[C@H](O)[C@H]3O)c(O)cc(O)c12` [Vitexin, 5,7-dihydroxy-2-(4-hydroxyphenyl)-8-((2S,3R,4R,5S,6R)-3,4,5-trihydroxy-6-(hydroxymethyl)tetrahydro-2H-pyran-2-yl)-4H-chromen-4-one], the “MIC toward S. aureus” value with Staphylococcus aureus was 100 µg/mL (≈ 231 µM). The “MIC toward S. epidermidis” value with S. epidermidis is 25 µg/mL (≈ 57.8 µM). Further, the “Anti-inflammatory effect against murine ear edema” value in the data set on murine ear edema model is given as “possess anti-inflammatory effects”. In addition, in data set [4], the “IC50 against parainfluenza virus type 3” value is 20.8 µg/mL (≈ 48.1 µM). The Absorption mechanism entry in the data set with Caco-2 cell monolayer is recorded as “transporter mediated efflux in addition to passive diffusion”. Moreover, the “P ratio Papp AP→BL/Papp BL→AP” value is given as 1.55 with Caco-2 cell monolayer (setting [5]) and 0.67 with Caco-2 cell monolayer (individual compound, 50 μmol/L). In addition, the Papp A→B at 90 min, 50 μmol/L in [1] (setting [6]) amounted to 1.6 ± 0.18 ×10⁻⁶ cm/s; in [1] (Caco-2, individual compound) it was 2.26 ± 0.37 ×10⁻⁶ cm/s. Besides, the Papp B→A at 90 min, 50 μmol/L in data set [1] (setting [6]) was 1.03 ± 0.28 ×10⁻⁶ cm/s; in [1] (Caco-2, individual compound), 3.38 ± 0.54 ×10⁻⁶ cm/s. Further, the “Substrate of P-gp” value on P-glycoprotein (P-gp) is listed as “substrates of P-gp”. The “Effect of verapamil hydrochloride on the transport” value on P-glycoprotein (P-gp) is “increased”. Also, the “RSD% values for 24-hour stability” value in data set [2] is listed as 2.42%. Besides, the “Survival rates (%)” value in the data set with Caco-2 cells (25 μmol/L) was 104.5±10.5%; in the data set on Caco-2 cells (50 μmol/L), 101.3±2.3%; with Caco-2 cells (100 μmol/L), 98.2±8.9%.

Source of the values: PMC4366261, “Characterization of the Intestinal Absorption of Seven Flavonoids from the Flowers of Trollius chinensis Using the Caco-2 Cell Monolayer Model” (PLoS ONE, 2015).
